Experimental findings from patent publication US9932314B2, “Pyrazole compounds and their use as T-type calcium channel blockers” (IDORSIA PHARMACEUTICALS LTD, priority 2015, dated 2018) are described below.

T1 sequence (O95180 whole entry): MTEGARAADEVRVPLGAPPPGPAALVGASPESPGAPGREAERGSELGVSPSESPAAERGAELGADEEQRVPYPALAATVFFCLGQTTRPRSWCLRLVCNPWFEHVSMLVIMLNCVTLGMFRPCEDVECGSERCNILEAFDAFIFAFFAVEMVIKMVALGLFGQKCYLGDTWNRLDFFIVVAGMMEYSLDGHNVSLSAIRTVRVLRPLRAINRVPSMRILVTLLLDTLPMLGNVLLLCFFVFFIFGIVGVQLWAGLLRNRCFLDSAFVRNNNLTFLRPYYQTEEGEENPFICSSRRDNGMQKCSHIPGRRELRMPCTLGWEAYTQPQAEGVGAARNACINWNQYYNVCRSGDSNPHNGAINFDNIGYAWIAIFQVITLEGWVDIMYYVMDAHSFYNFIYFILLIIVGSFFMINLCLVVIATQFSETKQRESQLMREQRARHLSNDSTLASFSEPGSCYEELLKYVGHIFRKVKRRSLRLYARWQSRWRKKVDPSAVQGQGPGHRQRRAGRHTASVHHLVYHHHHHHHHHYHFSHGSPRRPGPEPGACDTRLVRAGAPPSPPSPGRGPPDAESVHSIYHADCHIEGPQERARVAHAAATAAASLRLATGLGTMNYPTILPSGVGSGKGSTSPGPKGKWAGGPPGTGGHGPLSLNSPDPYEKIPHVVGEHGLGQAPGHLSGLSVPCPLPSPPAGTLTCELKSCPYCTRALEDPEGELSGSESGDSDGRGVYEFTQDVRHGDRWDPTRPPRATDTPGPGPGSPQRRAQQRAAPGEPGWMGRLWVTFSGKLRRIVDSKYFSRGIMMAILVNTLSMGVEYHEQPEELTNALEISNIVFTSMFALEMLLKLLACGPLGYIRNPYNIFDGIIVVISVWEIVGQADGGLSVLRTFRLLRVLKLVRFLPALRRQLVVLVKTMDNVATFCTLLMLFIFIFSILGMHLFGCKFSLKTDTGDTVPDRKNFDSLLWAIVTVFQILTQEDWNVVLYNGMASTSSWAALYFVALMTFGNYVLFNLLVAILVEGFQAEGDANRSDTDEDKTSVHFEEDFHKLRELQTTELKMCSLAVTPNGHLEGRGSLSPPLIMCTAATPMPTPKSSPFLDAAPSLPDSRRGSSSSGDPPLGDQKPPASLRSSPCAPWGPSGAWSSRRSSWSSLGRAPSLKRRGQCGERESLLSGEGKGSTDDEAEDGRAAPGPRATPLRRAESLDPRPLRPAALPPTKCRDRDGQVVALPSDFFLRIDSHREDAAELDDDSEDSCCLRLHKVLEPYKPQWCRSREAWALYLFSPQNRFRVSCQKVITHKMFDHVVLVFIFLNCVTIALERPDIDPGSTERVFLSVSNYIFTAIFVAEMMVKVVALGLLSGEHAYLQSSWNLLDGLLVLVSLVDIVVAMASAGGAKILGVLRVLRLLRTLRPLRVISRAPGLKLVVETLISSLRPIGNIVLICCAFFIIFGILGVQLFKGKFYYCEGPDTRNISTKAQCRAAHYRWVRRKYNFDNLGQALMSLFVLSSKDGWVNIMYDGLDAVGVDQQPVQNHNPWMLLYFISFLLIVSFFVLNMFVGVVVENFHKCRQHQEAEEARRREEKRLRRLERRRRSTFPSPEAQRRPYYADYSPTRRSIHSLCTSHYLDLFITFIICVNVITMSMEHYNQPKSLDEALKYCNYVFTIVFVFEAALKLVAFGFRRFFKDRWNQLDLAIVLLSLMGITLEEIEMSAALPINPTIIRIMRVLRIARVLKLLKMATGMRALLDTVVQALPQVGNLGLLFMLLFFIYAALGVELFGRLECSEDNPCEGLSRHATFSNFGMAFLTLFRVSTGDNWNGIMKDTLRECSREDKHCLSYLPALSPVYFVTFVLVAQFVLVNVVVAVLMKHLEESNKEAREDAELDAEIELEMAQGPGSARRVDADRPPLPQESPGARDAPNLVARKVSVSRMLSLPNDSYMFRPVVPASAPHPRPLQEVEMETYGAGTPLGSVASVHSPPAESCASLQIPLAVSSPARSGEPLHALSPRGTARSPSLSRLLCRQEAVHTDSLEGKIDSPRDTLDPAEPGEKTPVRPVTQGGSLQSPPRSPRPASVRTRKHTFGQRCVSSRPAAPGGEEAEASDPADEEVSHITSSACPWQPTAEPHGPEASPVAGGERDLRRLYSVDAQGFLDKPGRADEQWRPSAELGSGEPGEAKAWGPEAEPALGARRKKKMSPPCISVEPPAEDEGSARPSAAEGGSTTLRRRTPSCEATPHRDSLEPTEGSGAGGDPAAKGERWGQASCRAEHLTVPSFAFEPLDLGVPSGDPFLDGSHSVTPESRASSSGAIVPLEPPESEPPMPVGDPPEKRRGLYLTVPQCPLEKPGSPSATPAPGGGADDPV

This test has as its target T1, voltage-dependent T-type calcium channel subunit alpha-1G (Cav3.2) (Homo sapiens, UniProt O95180).
T1 construct: expressed in transfected cells; host or cells: HEK293
The experiment in a line: FLIPR calcium flux assay, HEK293 cells recombinantly expressing Cav3.2. It counts as cell-based. The note with it: Cav3.2-channel, Fluo-4-AM, 3 min incubation, stimulation with 10 mM CaCl2. How it is done:
In Vitro Methods—Measurement of Calcium Channel Flux by Means of FLIPR Assays.
HEK293 cells recombinantly expressing either voltage-dependent T-type calcium channel subunit […] (Cav3.2) or voltage-dependent L-type calcium channel subunit alpha-1C (Cav1.2) are assayed for calcium flux using the calcium indicator dye Fluo-4-AM (Molecular Devices) and FLIPR technology (Fluorometric Imaging Plate Reader, Molecular Devices) (Xie X, Van Deusen A L, Vitko I, Babu D A, Davies L A, Huynh N, Cheng H, Yang N, Barrett P Q, Perez-Reyes E. Validation of high throughput screening assays against three subtypes of Ca(v)3 T-type channels using molecular and pharmacologic approaches. Assay and Drug Development Technologies 2007, 5(2), 191-203). The HEK293 cells recombinantly expressing Cav3.2 are maintained in DMEM growth medium (Life Technologies) supplemented with 10% Fetal Bovine Serum (FBS), 100 U/ml penicilin (Life Technologies), 100 μg/ml streptomycin (Life Technologies) and 1 mg/ml G418 (Life Technologies). HEK293 cells recombinantly expressing Cav1.2 are maintained in DMEM growth medium (Life technologies) supplemented with 10% FBS, 0.1 mg/ml G418 (Life Technologies), 0.1 mg/ml hygromycin (Life Technologies) and 40 ug/ml zeocin (Life Technologies).
The seeded plates are incubated overnight at 37° C.
The cells are then washed three times with assay buffer (HBSS 1×; 0.375 g/L NaHCO3; 20 mM Hepes; 1% FBS; pH 7.4) and allowed to rest in 50 μl of wash buffer for 30 minutes.
Stock solutions of test compounds are prepared to a concentration of 10 mM in DMSO. For the Cav3.2 assay, serial dilutions of the compounds are prepared in TEAC buffer (100 mM tetraethylammonium chloride; 20 mM Hepes; 2.5 mM CaCl2; 5 mM KCl; 1 mM MgCl2; 1% FBS; pH 7.2), for the Cav1.2 assay serial dilutions are prepared in assay buffer. […] The compounds are incubated with the cells for 3 minutes and Ca2+ entry is stimulated by adding either CaCl2 to a final concentration of 10 mM (Cav3.2 assay) or by adding KCl to a final concentration of 20 mM (Cav1.2 assay). The kinetics of fluorescence increase are recorded for every well and the area under the fluorescence trace for every compound concentration is used to generate inhibition curves using non-linear regression sigmoidal concentration-response curve analysis with in-house software.
(In general: A change in cytosolic calcium serves as a functional read-out for many receptors and channels.)
As to `N#Cc1ccc(Cn2ccc(NC(=O)Cc3ccc(N4CC[C@@H](F)C4)cc3)n2)cc1` [Example 69, N-[1-(4-Cyano-benzyl)-1H-pyrazol-3-yl]-2-[4-((R)-3-fluoro-pyrrolidin-1-yl)-phenyl]-acetamide], the IC50 (usually the concentration that gives 50% inhibition) is 16 nM.

Turning to `O=C(Cc1ccc(N2CC[C@@H](F)C2)cc1)Nc1ccn(Cc2ccc(F)cc2)n1` [Example 70, N-[1-(4-Fluoro-benzyl)-1H-pyrazol-3-yl]-2-[4-((R)-3-fluoro-pyrrolidin-1-yl)-phenyl]-acetamide], the IC50 is 11 nM.

For the compound `CC(C)c1ccc(CC(=O)Nc2ccn(Cc3ccc(C#N)cn3)n2)cc1` [Example 71, N-[1-(5-Cyano-pyridin-2-ylmethyl)-1H-pyrazol-3-yl]-2-(4-isopropyl-phenyl)-acetamide], the IC50 turned out to be 60 nM.

Take `N#Cc1ccc(Cn2ccc(NC(=O)Cc3ccc(N4CC(F)C4)cc3)n2)cc1` [Example 72, N-[1-(4-Cyano-benzyl)-1H-pyrazol-3-yl]-2-[4-(3-fluoro-azetidin-l-yl)-phenyl]-acetamide]: the IC50 was found to be 46 nM.

As for `O=C(Cc1ccc(N2CC(F)C2)cc1)Nc1ccn(Cc2ccc(F)cc2)n1` [Example 73, 2-[4-(3-Fluoro-azetidin-1-yl)-phenyl]-N-[1-(4-fluoro-benzyl)-1H-pyrazol-3-yl]-acetamide], the IC50 came out at 7.9 nM.

Take `N#Cc1ccc(Cn2ccc(NC(=O)Cc3ccc(N4CC[C@H](F)C4)cc3)n2)cc1` [Example 74, N-[1-(4-Cyano-benzyl)-1H-pyrazol-3-yl]-2-[4-((S)-3-fluoro-pyrrolidin-1-yl)-phenyl]-acetamide]: the IC50 came to 14 nM.

With `O=C(Cc1ccc(N2CC[C@H](F)C2)cc1)Nc1ccn(Cc2ccc(F)cc2)n1` [Example 75, N-[1-(4-Fluoro-benzyl)-1H-pyrazol-3-yl]-2-[4-((S)-3-fluoro-pyrrolidin-1-yl)-phenyl]-acetamide], the IC50 was determined as 5.2 nM.

Take `N#Cc1ccc(Cn2ccc(NC(=O)Cc3ccc(N4CCC(F)(F)C4)cc3)n2)cc1` [Example 76, N-[1-(4-Cyano-benzyl)-1H-pyrazol-3-yl]-2-[4-(3,3-difluoro-pyrrolidin-1-yl)-phenyl]-acetamide]: the IC50 came to 6.1 nM.

For `O=C(Cc1ccc(N2CCC(F)(F)C2)cc1)Nc1ccn(Cc2ccc(F)cc2)n1` [Example 77, 2-[4-(3,3-Difluoro-pyrrolidin-1-yl)-phenyl]-N-[1-(4-fluoro-benzyl)-1H-pyrazol-3-yl]-acetamide], the IC50 stood at 9.1 nM.

As to `N#Cc1ccc(Cn2ccc(NC(=O)Cc3ccc(C4CC4)cc3)n2)nc1` [Example 78, N-[1-(5-Cyano-pyridin-2-ylmethyl)-1H-pyrazol-3-yl]-2-(4-cyclopropyl-phenyl)-acetamide], the IC50 was found to be 275 nM.

For `Cc1nccnc1-c1ccc(CC(=O)Nc2ccn(Cc3ccc(F)cc3)n2)cc1` [Example 80, N-[1-(4-Fluoro-benzyl)-1H-pyrazol-3-yl]-2-[4-(3-methyl-pyrazin-2-yl)-phenyl]-acetamide], the IC50 is 92 nM.

For the compound `O=C(Cc1ccc(-c2cnccn2)cc1)Nc1ccn(Cc2ccc(F)cc2)n1` [Example 81, N-[1-(4-Fluoro-benzyl)-1H-pyrazol-3-yl]-2-(4-pyrazin-2-yl-phenyl)-acetamide], the IC50 worked out at 131 nM.

As for `O=C(Cc1ccc(-c2ccccn2)cc1)Nc1ccn(Cc2ccc(F)cc2)n1` [Example 82, N-[1-(4-Fluoro-benzyl)-1H-pyrazol-3-yl]-2-(4-pyridin-2-yl-phenyl)-acetamide], the IC50 was found to be 33 nM.

Turning to `O=C(Cc1ccc(-c2cccnc2)cc1)Nc1ccn(Cc2ccc(F)cc2)n1` [Example 83, N-[1-(4-Fluoro-benzyl)-1H-pyrazol-3-yl]-2-(4-pyridin-3-yl-phenyl)-acetamide], the IC50 was 26 nM.

Turning to `O=C(Cc1ccc(-c2ccncc2)cc1)Nc1ccn(Cc2ccc(F)cc2)n1` [Example 84, N-[1-(4-Fluoro-benzyl)-1H-pyrazol-3-yl]-2-(4-pyridin-4-yl-phenyl)-acetamide], the IC50 amounted to 18 nM.

Take `O=C(Cc1ccc(-c2ncccn2)cc1)Nc1ccn(Cc2ccc(F)cc2)n1` [Example 85, N-[1-(4-Fluoro-benzyl)-1H-pyrazol-3-yl]-2-(4-pyrimidin-2-yl-phenyl)-acetamide]: the IC50 is 301 nM.

Turning to `O=C(Cc1ccc(-c2cncnc2)cc1)Nc1ccn(Cc2ccc(F)cc2)n1` [Example 86, N-[1-(4-Fluoro-benzyl)-1H-pyrazol-3-yl]-2-(4-pyrimidin-5-yl-phenyl)-acetamide], the IC50 was determined as 140 nM.

Consider `O=C(Cc1ccc(-c2ccncn2)cc1)Nc1ccn(Cc2ccc(F)cc2)n1` [Example 87, N-[1-(4-Fluoro-benzyl)-1H-pyrazol-3-yl]-2-(4-pyrimidin-4-yl-phenyl)-acetamide], for which the 50% inhibitory concentration (IC50) amounted to 157 nM.

`CC(C)c1ccc(CC(=O)Nc2ccn(Cc3ccc(F)c(F)c3)n2)cn1` [Example 88, N-[1-(3,4-Difluoro-benzyl)-1H-pyrazol-3-yl]-2-(6-isopropyl-pyridin-3-yl)-acetamide]: the IC50 is 109 nM.

As to `N#Cc1ccc(Cn2ccc(NC(=O)Cc3ccc(N4CC[C@@H](F)C4)cc3)n2)nc1` [Example 89, N-[1-(5-Cyano-pyridin-2-ylmethyl)-1H-pyrazol-3-yl]-2-[4-((R)-3-fluoro-pyrrolidin-1-yl)-phenyl]-acetamide], the IC50 was 61 nM.

In the case of `N#Cc1ccc(Cn2ccc(NC(=O)Cc3ccc(N4CC[C@H](F)C4)cc3)n2)nc1` [Example 90, N-[1-(5-Cyano-pyridin-2-ylmethyl)-1H-pyrazol-3-yl]-2-[4-((S)-3-fluoro-pyrrolidin-1-yl)-phenyl]-acetamide], the IC50 was found to be 75 nM.

`N#Cc1ccc(Cn2ccc(NC(=O)Cc3ccc(N4CCC(F)(F)C4)cc3)n2)nc1` [Example 91, N-[1-(5-Cyano-pyridin-2-ylmethyl)-1H-pyrazol-3-yl]-2-[4-(3,3-difluoro-pyrrolidin-1-yl)-phenyl]-acetamide]: the IC50 was found to be 23 nM.

Regarding `Cc1cncnc1-c1ccc(CC(=O)Nc2ccn(Cc3ccc(F)cc3)n2)cc1` [Example 92, N-[1-(4-Fluoro-benzyl)-1H-pyrazol-3-yl]-2-[4-(5-methyl-pyrimidin-4-yl)-phenyl]-acetamide], the IC50 was determined as 48 nM.

Turning to `CC(C)c1ccc(CC(=O)Nc2ccn(Cc3ccc(OCC(F)(F)F)cn3)n2)cc1` [Example 93, 2-(4-Isopropyl-phenyl)-N-{1-[5-(2,2,2-trifluoro-ethoxy)-pyridin-2-ylmethyl]-1H-pyrazol-3-yl}-acetamide], the IC50 was 39 nM.

Consider `CC(C)c1ccc(CC(=O)Nc2ccn(Cc3ccc(Br)cn3)n2)cc1` [Example 94, N-[1-(5-Bromo-pyridin-2-ylmethyl)-1H-pyrazol-3-yl]-2-(4-isopropyl-phenyl)-acetamide], for which the IC50 turned out to be 8.3 nM.

On to `O=C(Cc1cnc(OCC(F)(F)F)c(F)c1)Nc1ccn(Cc2ccc(F)c(F)c2)n1` [Example 95, N-[1-(3,4-Difluoro-benzyl)-1H-pyrazol-3-yl]-2-[5-fluoro-6-(2,2,2-trifluoro-ethoxy)-pyridin-3-yl]-acetamide], for which the IC50 worked out at 99 nM.

With `CC(C)c1ccc(CC(=O)Nc2ccn(Cc3ccc(C4CC4)cn3)n2)cc1` [Example 96, N-[1-(5-Cyclopropyl-pyridin-2-ylmethyl)-1H-pyrazol-3-yl]-2-(4-isopropyl-phenyl)-acetamide], the IC50 came out at 53 nM.

Take `Cc1ccc(Cn2ccc(NC(=O)Cc3ccc(C(C)C)cc3)n2)nc1` [Example 97, 2-(4-Isopropyl-phenyl)-N-[1-(5-methyl-pyridin-2-ylmethyl)-1H-pyrazol-3-yl]-acetamide]: the IC50 came out at 31 nM.

With `CC(C)Cc1ccc(Cn2ccc(NC(=O)Cc3ccc(C(C)C)cc3)n2)nc1` [Example 98, N-[1-(5-Isobutyl-pyridin-2-ylmethyl)-1H-pyrazol-3-yl]-2-(4-isopropyl-phenyl)-acetamide], the IC50 turned out to be 38 nM.

With `O=C(Cc1ccc(N2CCC2)nc1)Nc1ccn(Cc2ccc(F)c(F)c2)n1` [Example 99, 2-(6-Azetidin-1-yl-pyridin-3-yl)-N-[1-(3,4-difluoro-benzyl)-1H-pyrazol-3-yl]-acetamide], the IC50 turned out to be 48 nM.

As to `CCc1ccc(Cn2ccc(NC(=O)Cc3ccc(C(C)C)cc3)n2)nc1` [Example 100, N-[1-(5-Ethyl-pyridin-2-ylmethyl)-1H-pyrazol-3-yl]-2-(4-isopropyl-phenyl)-acetamide], the IC50 was 60 nM.

With `COc1ccc(Cn2ccc(NC(=O)Cc3ccc(N4CCC4)nc3)n2)cc1` [Example 101, 2-(6-Azetidin-1-yl-pyridin-3-yl)-N-[1-(4-methoxy-benzyl)-1H-pyrazol-3-yl]-acetamide], the half-maximal inhibitory concentration (IC50) was found to be 925 nM.
